Measurements reported in patent publication EP0094564A2, “Azolyl-methyl oxiranes, their preparation and use as medicaments and plant protecting agents” (BASF Aktiengesellschaft, priority 1982, dated 1983).
Values after ≈ are worked out from the molar mass of the structure shown.

Legend:
Aps.fum. 2 = assay: Agar dilution test, minimal inhibitory concentration in vitro; assay type: cell-based; details: read-out: Minimale Hemmkonzentration (MHK) Aps.fum. 2
From the text: (§1) Die Wirkung gegen Dermatophyten, Bakterien und Protozonen kann nach Methoden, wie sie beispielsweise in P. Klein, Bakteriologische Grundlagen der chemotherapeutischen Laboratoriumspraxis, Springer-Verlag Berlin, 1957, beschrieben wird, aufgezeigt werden. Die überraschende Wirkung gegenüber Hefen wurde im Pseudomyzel- und Myzelphasentest mit Candida albicans nachgewiesen (vgl. DE-OS 30 10 093). Es wurde geprüft, welche minimalen Hemmkonzentrationen (MHK-Werte) im Agardilutionstest erreicht werden. In der Tabelle 1 sind die Ergebnisse zusammengefaßt.

Staph. aur. SG 511 = assay: as above; assay type: cell-based; details: read-out: Minimale Hemmkonzentration (MHK) Staph. aur. SG 511
From the text: as §1

Mucor pus. 6 = assay: as above; assay type: cell-based; details: read-out: Minimale Hemmkonzentration (MHK) Mucor pus. 6
From the text: as §1

Trichoph. ment. 21 = assay: as above; assay type: cell-based; details: read-out: Minimale Hemmkonzentration (MHK) Trichoph. ment. 21
From the text: as §1

E.coli muta-flor = assay: as above; assay type: cell-based; details: Escherichia coli, read-out: Minimale Hemmkonzentration (MHK) E.coli muta-flor
From the text: as §1

Abs. corym. 1 = assay: as above; assay type: cell-based; details: read-out: Minimale Hemmkonzentration (MHK) Abs. corym. 1
From the text: as §1

Epid. flocc. 157 = assay: as above; assay type: cell-based; details: read-out: Minimale Hemmkonzentration (MHK) Epid. flocc. 157
From the text: as §1

Microsp. ferrug. 5 = assay: as above; assay type: cell-based; details: read-out: Minimale Hemmkonzentration (MHK) Microsp. ferrug. 5
From the text: as §1

Strept. faec. 8043 = assay: as above; assay type: cell-based; details: read-out: Minimale Hemmkonzentration (MHK) Strept. faec. 8043
From the text: as §1

Trichom. vag. = assay: Minimal inhibitory concentration in vitro (protozoa); assay type: cell-based; details: read-out: Minimale Hemmkonzentration (MHK) Trichom. vag.
From the text: as §1

Cand.alb. H = assay: Candida albicans pseudomycelium/mycelium phase test, MIC; assay type: cell-based; details: in vitro, column H, read-out: Minimale Hemmkonzentration (MHK) Cand.alb. H
From the text: as §1

[1] = test system: Gurkenmehltau (Erysiphe cichoracearum); assay: Versuch 3: activity against cucumber powdery mildew on cucumber seedlings; assay type: in vivo; details: 0,025 %ige Spritzbrühe; sprayed about 20 h after inoculation; assessed after 21 days; value given as 'beispielsweise'
From the text: Blätter von in Töpfen gewachsenen Gurkenkeimlingen der Sorte "Chinesische Schlange" wurden im Zweiblattstadium mit einer Sporensuspension des Gurkenmehltaus (Erysiphe cichoracearum) besprüht. Nach etwa 20 Stunden wurden die Versuchspflanzen mit wäßriger Spritzbrühe, die 80 % Wirkstoff und 20 % Emulgiermittel in der Trockensubstanz enthielt, bis zur Tropfnässe besprüht. Nach dem Antrocknen des J Spritzbelages wurden sie anschließend im Gewächshaus bei Temperaturen zwischen 20 und 22^00 und 70 bis 80 % relativer Luftfeuchtigkeit aufgestellt. Zur Beurteilung der Wirksamkeit der neuen Stoffe wurde das Ausmaß der Pilzentwicklung nach 21 Tagen beurteilt.

Cand.alb. M = assay: Candida albicans pseudomycelium/mycelium phase test, MIC (column M); assay type: cell-based; details: in vitro, read-out: Minimale Hemmkonzentration (MHK) Cand.alb. M
From the text: as §1

[2] = test system: Weizenbraunrost (Puccinia recondita); assay: Versuch 2: activity against wheat brown rust on wheat seedlings; assay type: in vivo; details: 0,025; 0,006; 0,0015 %ige Spritzbrühen; sprayed 24 h after inoculation; assessed after 8 days; value given as 'beispielsweise'
Procedure: Blätter von in Töpfen gewachsenen Weizensämlingen der Sorte "Jubilar" wurden mit Sporen des Braunrostes (Puccinia recondita) bestäubt. Danach wurden die Töpfe für 24 Stunden bei 20 bis 22°C in eine Kammer mit hoher Luftfeuchtigkeit (90 bis 95 %) gestellt. Während dieser Zeit keimten die Sporen aus und die Keimschläuche drangen in das Blattgewebe ein. Die infizierten Pflanzen wurden anschließend mit wäßrigen Spritzbrühen, die 80 % Wirkstoff und 20 % Emulgiermittel in der Trockensubstanz enthielten, tropfnaß gespritzt. Nach dem Antrocknen des Spritzbelages wurden die Versuchspflanzen im Gewächshaus bei Temperaturen zwischen 20 und 22°C und 65 bis 70 % relativer Luftfeuchte aufgestellt. Nach 8 Tagen wurde das Ausmaß der Rostpilzentwicklung auf den Blättern ermittelt.

Botrytis cinerea = assay: Versuch 4: activity against Botrytis cinerea on paprika seedlings; assay type: in vivo; details: 0,05 %ige Spritzbrühe; sprayed before inoculation; assessed after 5 days; value given as 'beispielsweise'
From the text: Paprikasämlinge der Sorte "Neusiedler Ideal Elite" wurden, nachdem sich 4 bis 5 Blätter gut entwickelt hatten, mit wäßrigen Suspensionen, die 80 % Wirkstoff und 20 % Emulgiermittel in der Trockensubstanz enthielten, tropfnaß gespritzt. Nach dem Antrocknen des Spritzbelages wurden die Pflanzen mit einer Konidienaufschwemmung des Pilzes Botrytis cenerea besprüht und bei 22 bis 24 C in eine Kammer mit hoher Luftfeuchtigkeit gestellt. Nach 5 Tagen hatte sich die Krankheit auf den unbehandelten Kontrollpflanzen so stark entwickelt, daß die entstandenen Blattnekrosen den überwiegenden Teil der Blätter bedeckten.

Trametes versicolor = assay: Versuch 6: fungal growth on malt extract agar containing active ingredient; assay type: cell-based; parameters: key: 0 = kein Pilzwachstum (Pilzmyzel abgetötet); 1 = geringes Pilzwachstum (bis 1/3 der Agaroberfläche bewachsen); 3 = mittleres Pilzwachstum (bis 2/3 der Agaroberfläche bewachsen); 5 = ungehemmtes Pilzwachstum (gesamte Agaroberfläche bewachsen); details: 40 ppm in 5 % malt extract agar; 5 days at 25 °C; growth score
From the text: (§2) Die Wirkstoffe werden in Aceton gelöst, in Mengen von 40 ppm einem verflüssigten 5 %igen Malzextraktagar zugesetzt. Der Agar wird in Petrischalen ausgegossen und nach dem Erstarren werden die fungizidhaltigen Nähragarplatten zentral mit Myzel der holzzerstörenden Pilze Coniophora puteana und Trametes versicolor, des Moderfäule und Stockflecken verursachenden Pilzes Chaetomium globosum sowie mit Sporen des grünen Holzschimmels Trichoderma viride beimpft.
(§3) Nach fünftägiger Bebrütung der Schalen bei 25 °C wird die Entwicklung der Pilzkolonien auf dem Nährboden im Vergleich mit der Kontrolle (ohne Wirkstoff-Zusatz) beurteilt: • 0 = kein Pilzwachstum (Pilzmyzel abgetötet) • 1 = geringes Pilzwachstum (bis 1/3 der Agaroberfläche bewachsen) • 3 = mittleres Pilzwachstum (bis 2/3 der Agaroberfläche bewachsen) • 5 = ungehemmtes Pilzwachstum (gesamte Agaroberfläche bewachsen)

Coniophora puteana = assay: as above; assay type: cell-based; parameters: key: 0 = kein Pilzwachstum (Pilzmyzel abgetötet); 1 = geringes Pilzwachstum (bis 1/3 der Agaroberfläche bewachsen); 3 = mittleres Pilzwachstum (bis 2/3 der Agaroberfläche bewachsen); 5 = ungehemmtes Pilzwachstum (gesamte Agaroberfläche bewachsen); details: 40 ppm in 5 % malt extract agar; 5 days at 25 °C; growth score
From the text: as §2, §3

Trichoderma viride = assay: as above; assay type: cell-based; parameters: key: 0 = kein Pilzwachstum (Pilzmyzel abgetötet); 1 = geringes Pilzwachstum (bis 1/3 der Agaroberfläche bewachsen); 3 = mittleres Pilzwachstum (bis 2/3 der Agaroberfläche bewachsen); 5 = ungehemmtes Pilzwachstum (gesamte Agaroberfläche bewachsen); details: 40 ppm in 5 % malt extract agar; 5 days at 25 °C; growth score
From the text: as §2, §3

Chaetomium globosum = assay: as above; assay type: cell-based; parameters: key: 0 = kein Pilzwachstum (Pilzmyzel abgetötet); 1 = geringes Pilzwachstum (bis 1/3 der Agaroberfläche bewachsen); 3 = mittleres Pilzwachstum (bis 2/3 der Agaroberfläche bewachsen); 5 = ungehemmtes Pilzwachstum (gesamte Agaroberfläche bewachsen); details: 40 ppm in 5 % malt extract agar; 5 days at 25 °C; growth score
From the text: as §2, §3

Row | Structure (SMILES) | MIC (Aps.fum. 2) | MIC (Staph. aur. SG 511) | MIC (Mucor pus. 6) | MIC (Trichoph. ment. 21) | MIC (E.coli muta-flor) | MIC (Abs. corym. 1) | MIC (Epid. flocc. 157) | MIC (Microsp. ferrug. 5) | MIC (Strept. faec. 8043) | MIC (Trichom. vag.) | MIC (Cand.alb. H) | fungizide Wirkung gegen Gurkenmehltau [1] | MIC (Cand.alb. M) | fungizide Wirkung gegen Weizenbraunrost [2] | fungizide Wirkung gegen Botrytis cinerea an Paprika (Botrytis cinerea) | Wirksamkeit gegen Trametes versicolor (Trametes versicolor) | Wirksamkeit gegen Coniophora puteana (Coniophora puteana) | Wirksamkeit gegen Trichoderma viride (Trichoderma viride) | Wirksamkeit gegen Chaetomium globosum (Chaetomium globosum)
1 | Clc1ccc(C2(Cn3ccnc3)OC2c2ccccc2)cc1 (single isomer, unassigned) [Beispiel 9] | 16 µg/mL (≈ 51.5 µM) | 128 µg/mL (≈ 412 µM) | 2 µg/mL (≈ 6.44 µM) | 1 µg/mL (≈ 3.22 µM) | > 128 µg/mL | 4 µg/mL (≈ 12.9 µM) | 1 µg/mL (≈ 3.22 µM) | 0.25 µg/mL (≈ 0.804 µM) | 128 µg/mL (≈ 412 µM) | > 16 µg/mL | > 1 µg/mL | – | – | – | – | – | – | – | –
2 | Clc1ccc(C2OC2(Cn2ccnc2)c2ccccc2)c(Cl)c1 (single isomer, unassigned) [Beispiel 6] | 0.0625 µg/mL (≈ 0.181 µM) | 16 µg/mL (≈ 46.3 µM) | 4 µg/mL (≈ 11.6 µM) | – | > 128 µg/mL | 8 µg/mL (≈ 23.2 µM) | – | 0.0625 µg/mL (≈ 0.181 µM) | 16 µg/mL (≈ 46.3 µM) | > 16 µg/mL | 32 µg/mL (≈ 92.7 µM) | 100% | < 0.0039 µg/mL | 100% | 97% | – | – | – | –
3 | Clc1ccc(C2OC2(Cn2cncn2)c2ccc(Br)cc2)c(Cl)c1 (single isomer, unassigned) [Beispiel 10] | – | – | – | – | – | – | – | – | – | – | – | 100% | – | 100% | 97% | 0 | 0 | 0 | 0
4 | Clc1ccc(C2(Cn3ccnc3)OC2c2ccc(Br)cc2)cc1 (single isomer, unassigned) [Beispiel 48] | – | – | – | – | – | – | – | – | – | – | – | – | – | – | – | 0 | 0 | 0 | 0
5 | CC1(Cn2cncn2)OC1c1ccc(Cl)cc1Cl (single isomer, unassigned) [Beispiel 23] | – | – | – | – | – | – | – | – | – | – | – | – | – | – | – | 0 | 0 | 0 | 0
6 | CC(C)(C)C1(Cn2cncn2)OC1c1ccccc1 (single isomer, unassigned) [Beispiel 15] | – | – | – | – | – | – | – | – | – | – | – | 100% | – | – | – | 0 | 0 | 1 | 3
7 | Clc1ccc(C2OC2(Cn2ccnc2)c2ccc(Br)cc2)c(Cl)c1 (single isomer, unassigned) [Beispiel 7] | 4 µg/mL (≈ 9.43 µM) | 16 µg/mL (≈ 37.7 µM) | 2 µg/mL (≈ 4.72 µM) | 1 µg/mL (≈ 2.36 µM) | > 128 µg/mL | 1 µg/mL (≈ 2.36 µM) | 1 µg/mL (≈ 2.36 µM) | 0.25 µg/mL (≈ 0.589 µM) | 16 µg/mL (≈ 37.7 µM) | > 16 µg/mL | 16 µg/mL (≈ 37.7 µM) | – | 0.0156 µg/mL (≈ 0.0368 µM) | – | – | – | – | – | –
8 | Fc1ccc(C2OC2(Cn2cncn2)c2ccc(Cl)cc2)cc1 (single isomer, unassigned) [Beispiel 45] | – | – | – | – | – | – | – | – | – | – | – | 100% | – | – | – | 0 | 0 | 0 | 1
9 | CC(C)(C)C1(Cn2ccnc2)OC1c1ccc(Cl)cc1 (single isomer, unassigned) [Beispiel 14] | – | – | – | – | – | – | – | – | – | – | – | 100% | – | – | – | 0 | 0 | 0 | 0
10 | Clc1ccc(C2(Cn3ccnc3)OC2c2ccc(Br)cc2)c(Cl)c1 (single isomer, unassigned) [Beispiel 49] | – | – | – | – | – | – | – | – | – | – | – | – | – | – | – | 0 | 0 | 0 | 1
